From patent publication US20210277003A1, “OGA INHIBITOR COMPOUNDS” (Janssen Pharmaceutica NV, priority 2018, published 2021)

Assays:
[1] = biological target: T1, recombinant human Meningioma Expressed Antigen 5 (MGEA5), also referred to as O-GlcNAcase (OGA) (Homo sapiens, UniProt O60502); experiment: OGA biochemical assay: inhibition of hydrolysis of fluorescein mono-ß-D-N-Acetyl-Glucosamine (FM-GlcNAc), fluorescence readout; conditions: FM-GlcNAc substrate; for Emax: read-out: Enzymatic Emax (%); for IC50: read-out: Enzymatic hOGA, pIC50 (converted)
T1 construct: Full length OGA enzyme was purchased at OnGene (cat #TP322411); purchased OnGene (so in the source)
T1 sequence (O60502 1-916): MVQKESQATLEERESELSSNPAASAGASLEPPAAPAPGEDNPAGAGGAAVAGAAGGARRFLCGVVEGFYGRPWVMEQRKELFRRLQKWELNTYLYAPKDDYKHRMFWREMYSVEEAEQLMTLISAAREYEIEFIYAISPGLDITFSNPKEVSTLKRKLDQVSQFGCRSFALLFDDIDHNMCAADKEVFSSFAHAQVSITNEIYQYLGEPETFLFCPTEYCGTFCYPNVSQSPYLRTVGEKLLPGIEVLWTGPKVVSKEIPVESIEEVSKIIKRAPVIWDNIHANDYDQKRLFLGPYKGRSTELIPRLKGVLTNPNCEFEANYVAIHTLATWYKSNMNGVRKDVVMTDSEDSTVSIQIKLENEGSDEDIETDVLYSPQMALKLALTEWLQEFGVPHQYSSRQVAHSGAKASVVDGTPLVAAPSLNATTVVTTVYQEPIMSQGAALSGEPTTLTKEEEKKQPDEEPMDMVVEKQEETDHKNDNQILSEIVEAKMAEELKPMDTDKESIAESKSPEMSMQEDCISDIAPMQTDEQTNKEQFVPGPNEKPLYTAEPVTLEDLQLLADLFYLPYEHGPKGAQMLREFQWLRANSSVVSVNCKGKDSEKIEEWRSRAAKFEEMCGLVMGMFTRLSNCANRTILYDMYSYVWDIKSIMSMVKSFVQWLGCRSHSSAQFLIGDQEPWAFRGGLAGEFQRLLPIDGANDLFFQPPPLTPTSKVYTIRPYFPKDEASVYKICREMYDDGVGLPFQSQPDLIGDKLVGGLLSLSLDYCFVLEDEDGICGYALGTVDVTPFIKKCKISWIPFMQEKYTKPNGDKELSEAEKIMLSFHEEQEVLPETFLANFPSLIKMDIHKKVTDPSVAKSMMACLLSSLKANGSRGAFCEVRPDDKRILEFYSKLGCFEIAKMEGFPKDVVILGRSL
Procedure, shortened: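 Full-length recombinant human OGA (2 nM) was pre-incubated with compound for 60 min, then reacted with 100 uM FM-GlcNAc for 6 h at room temperature in 200 mM citrate/phosphate pH 7.2 with 0.005% Tween-20. Reactions were stopped with pH 11.0 carbonate and fluorescein read at 485/538 nm. IC50 and Hill coefficient came from curve fitting.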

[2] = tested on: OGA in HEK293 cells inducible for P301L mutant human Tau (isoform 2N4R); experiment: OGA cellular assay: immunocytochemical detection of O-GlcNAcylated proteins (CTD110.6 antibody); assay type: cell-based; conditions: 6 hours incubation; for Emax / EC50: Homo sapiens, HEK293, 6 h; for EC50: read-out: Cellular hOGA, pEC50 (converted)
Procedure, shortened: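 Cells seeded 2 days ahead in low-glucose assay medium and exposed to compounds for 6 h at 0.2% DMSO, then PFA-fixed and immunostained. Signal is 488 nm intensity from imaging (9 fields/well), with Hoechst nuclei counts as a toxicity check. IC50 from non-linear regression, with 200 uM Thiamet G per plate as maximum inhibition.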

CCCCn1ccc2c(Nc3c(C)ccc(C(=O)NC)c3C)nccc21 [Compound 58]
Emax [1]: 101%
IC50 [1]: 3.09 nM
Emax ([2]; maximum = Thiamet G 200 uM): 88%
EC50 [2]: 72.4 nM

Cc1ccnc(C(F)F)c1Nc1nccc2c1ccn2CC(C)(F)F [Compound 134]
Enzymatic hOGA; pIC50 [1]: 8.28
Emax [1]: 99.9%
Emax ([2]; maximum = Thiamet G 200 uM): 77.5%
EC50 [2]: 81.3 nM

Cc1ccnc(C)c1Nc1nccc2c1ccn2CC1CCO1 (single isomer, unassigned) [Compound 25b]
Enzymatic Emax (%) [1]: 101%
IC50 [1]: 4.57 nM
Cellular hOGA; pEC50 [2]: 7.63
Cellular Emax (%) ([2]; maximum = Thiamet G 200 uM): 90%

CCCCn1ccc2c(Nc3c(C)cc(C)cc3C)nccc21 [Compound 68]
Emax [1]: 104%
IC50 [1]: 3.8 nM
Emax ([2]; maximum = Thiamet G 200 uM): 87%
EC50 [2]: 57.5 nM

Cc1cc(C)c(Nc2nccc3c2ccn3CC(F)(F)C(C)C)c(OC(F)F)n1 [Compound 179]
Emax [1]: 102%
IC50 [1]: 2.04 nM
Emax ([2]; maximum = Thiamet G 200 uM): 80.9%
EC50 [2]: 20.4 nM

Cc1cc(C(F)(F)F)nc(C)c1Nc1nccc2c1ccn2CC(C)(F)F [Compound 131]
Enzymatic hOGA; pIC50 [1]: 8.36
Emax [1]: 102%
Emax ([2]; maximum = Thiamet G 200 uM): 78.7%
EC50 [2]: 15.5 nM

Clc1cccc(Cl)c1Nc1nccc2c1ccn2CCC1CC1 [Compound 70]
Emax [1]: 103%
IC50 [1]: 1.7 nM
Emax ([2]; maximum = Thiamet G 200 uM): 82%
EC50 [2]: 37.2 nM

Clc1cccc(Cl)c1Nc1nccc2c1ccn2CC1COC1 [Compound 35]
Emax [1]: 100%
IC50 [1]: 148 nM
Emax ([2]; maximum = Thiamet G 200 uM): 20%
EC50 [2]: > 1000 nM

CCCCn1ccc2c(Nc3c(C)cc(C(=O)N4CCOCC4)cc3C)nccc21 [Compound 56]
Emax [1]: 101%
IC50 [1]: 2.69 nM
Emax ([2]; maximum = Thiamet G 200 uM): 107%
EC50 [2]: 5.13 nM

Cc1cc(Cn2ccc3c(Nc4c(Cl)cc(F)cc4Cl)nccc32)no1 [Compound 158]
Enzymatic hOGA; pIC50 [1]: 8.58
Emax [1]: 101%
Emax ([2]; maximum = Thiamet G 200 uM): 71%
EC50 [2]: 63.1 nM

CCCCn1ccc2c(Nc3c(F)cncc3CC)nccc21 [Compound 44]
Emax [1]: 100%
IC50 [1]: 35.5 nM
Emax ([2]; maximum = Thiamet G 200 uM): 69%
EC50 [2]: 302 nM

CCCCn1ccc2c(Nc3c(C)cccc3C)nccc21 [Compound 72]
Emax [1]: 100%
IC50 [1]: 5.62 nM
Emax ([2]; maximum = Thiamet G 200 uM): 78%
EC50 [2]: 53.7 nM

CCC(F)(F)Cn1ccc2c(Nc3c(C)ccnc3C(C)C)nccc21 [Compound 112]
Enzymatic hOGA; pIC50 [1]: 8.88
Emax [1]: 102%
Emax ([2]; maximum = Thiamet G 200 uM): 92.3%
EC50 [2]: ~1.82 nM

FC1(F)CC(Cn2ccc3c(Nc4c(Cl)cccc4Cl)nccc32)C1 [Compound 91]
Enzymatic hOGA; pIC50 [1]: 8
Emax [1]: 102%
Emax ([2]; maximum = Thiamet G 200 uM): 73%
EC50 [2]: 79.4 nM

CCCCn1ccc2c(Nc3c(C)ccc4c3nc(C)n4C)nccc21 [Compound 206]
Emax [1]: 101%
IC50 [1]: 51.3 nM
Emax ([2]; maximum = Thiamet G 200 uM): 63.7%
EC50 [2]: 661 nM

Cc1cc(-c2cnn(C)c2)cc(C)c1Nc1nccc2c1ccn2CC(C)(F)F [Compound 154]
Enzymatic hOGA; pIC50 [1]: 8.67
Emax [1]: 101%
Emax ([2]; maximum = Thiamet G 200 uM): 86.2%
EC50 [2]: 3.47 nM

CC[C@H](O)Cn1ccc2c(Nc3c(C)cc(F)cc3C)nccc21 [Compound 145b]
Enzymatic hOGA; pIC50 [1]: 8.46
Emax [1]: 102%
Emax ([2]; maximum = Thiamet G 200 uM): 85.7%
EC50 [2]: 26.9 nM

Cc1cc(F)cc(F)c1Nc1nccc2c1ccn2CC(C)(F)F [Compound 155]
Enzymatic hOGA; pIC50 [1]: 8
Emax [1]: 101%
Emax ([2]; maximum = Thiamet G 200 uM): 73.3%
EC50 [2]: 50.1 nM

Cc1cc(OC(F)F)cc(Cl)c1Nc1nccc2c1ccn2CC1CC(F)(F)C1 [Compound 116]
Enzymatic hOGA; pIC50 [1]: 7.98
Emax [1]: 104%
Emax ([2]; maximum = Thiamet G 200 uM): 61.8%
EC50 [2]: 55 nM

Cc1cncc(C)c1Nc1nccc2c1ccn2CCC(C)C [Compound 48]
Emax [1]: 102%
IC50 [1]: 10.7 nM
Emax ([2]; maximum = Thiamet G 200 uM): 86%
EC50 [2]: 30.9 nM

Clc1cccc(Cl)c1Nc1nccc2c1ccn2Cc1ncco1 [Compound 169]
Emax [1]: 104%
IC50 [1]: 12 nM
Emax ([2]; maximum = Thiamet G 200 uM): 67.5%
EC50 [2]: 550 nM

Cc1cncc(Cl)c1Nc1nccc2c1ccn2CC1CC1 [Compound 110]
Enzymatic hOGA; pIC50 [1]: 7.54
Emax [1]: 100%
Emax ([2]; maximum = Thiamet G 200 uM): 48%
EC50 [2]: 363 nM

Cc1cc(OC(F)F)nc(C)c1Nc1nccc2c1ccn2CC(C)(F)F [Compound 149]
Enzymatic hOGA; pIC50 [1]: 8.58
Emax [1]: 101%
Emax ([2]; maximum = Thiamet G 200 uM): 96.4%
EC50 [2]: 10.7 nM

N#CCCCn1ccc2c(Nc3c(Cl)cccc3Cl)nccc21 [Compound 50]
Emax [1]: 102%
IC50 [1]: 12.6 nM
Emax ([2]; maximum = Thiamet G 200 uM): 78%
EC50 [2]: 302 nM

CCCCn1ccc2c(Nc3c(Cl)ccc4c3OCCO4)nccc21 [Compound 51]
Emax [1]: 102%
IC50 [1]: 11.2 nM
Emax ([2]; maximum = Thiamet G 200 uM): 76%
EC50 [2]: 117 nM

CCC(F)(F)Cn1ccc2c(Nc3c(Cl)cccc3Cl)nccc21 [Compound 113]
Enzymatic hOGA; pIC50 [1]: 8.9
Emax [1]: 106%
Emax ([2]; maximum = Thiamet G 200 uM): 93%
EC50 [2]: 7.94 nM

CCCCn1ccc2c(Nc3c(C)cc(NC(C)=O)cc3C)nccc21 [Compound 62]
Emax [1]: 101%
IC50 [1]: 5.37 nM
Emax ([2]; maximum = Thiamet G 200 uM): 95%
EC50 [2]: 9.33 nM

CC[C@@H](O)Cn1ccc2c(Nc3c(C)cc(F)cc3C)nccc21 [Compound 145a]
Enzymatic hOGA; pIC50 [1]: 7.79
Emax [1]: 100%
Emax ([2]; maximum = Thiamet G 200 uM): 81.2%
EC50 [2]: 56.2 nM

Cc1ccnc(C)c1Nc1nccc2c1ccn2CCC(C)C [Compound 47]
Emax [1]: 101%
IC50 [1]: 11.7 nM
Emax ([2]; maximum = Thiamet G 200 uM): 95%
EC50 [2]: 47.9 nM

CCCCn1ccc2c(Nc3c(C)ccc4[nH]nnc34)nccc21 [Compound 12]
Enzymatic hOGA; pIC50 [1]: 7.31
Emax [1]: 99%
Emax ([2]; maximum = Thiamet G 200 uM): 64%
EC50 [2]: 562 nM

Fc1cc(Cl)c(Nc2nccc3c2ccn3CC2CCCO2)c(Cl)c1 (stereo not drawn) [Compound 136]
Enzymatic hOGA; pIC50 [1]: 7.64
Emax [1]: 101%
Emax ([2]; maximum = Thiamet G 200 uM): 74.9%
EC50 [2]: 240 nM

Cc1cccc(S(C)(=O)=O)c1Nc1nccc2c1ccn2CCC1CC1 [Compound 195]
Emax [1]: 102%
IC50 [1]: 1.35 nM
Emax ([2]; maximum = Thiamet G 200 uM): 95.3%
EC50 [2]: 25.1 nM

CCCCn1ccc2c(Nc3c(C)ccnc3C)ncc(F)c21 [Compound 80]
Emax [1]: 100%
IC50 [1]: 28.8 nM
Emax ([2]; maximum = Thiamet G 200 uM): 73%
EC50 [2]: 372 nM

CCCCn1ccc2c(Nc3c(C)cncc3C(C)C)nccc21 [Compound 63]
Emax [1]: 103%
IC50 [1]: 2.88 nM
Emax ([2]; maximum = Thiamet G 200 uM): 93%
EC50 [2]: 12.3 nM

Cc1ccnc(C)c1Nc1nccc2c1ccn2CC1CCO1 (stereo not drawn) [Compound 25]
Emax [1]: 104%
IC50 [1]: 4.79 nM
Emax ([2]; maximum = Thiamet G 200 uM): 89%
EC50 [2]: 38 nM

CCCCn1ccc2c(Nc3c(C)cc4c(c3C)OCCO4)nccc21 [Compound 53]
Emax [1]: 105%
IC50 [1]: 1.86 nM
Emax ([2]; maximum = Thiamet G 200 uM): 82%
EC50 [2]: 20.4 nM

Cc1ncnc(C(C)C)c1Nc1nccc2c1ccn2CCC1CC1 [Compound 193]
Emax [1]: 102%
IC50 [1]: 6.31 nM
Emax ([2]; maximum = Thiamet G 200 uM): 89.7%
EC50 [2]: 112 nM

CCCCn1ccc2c(Nc3c(Cl)cccc3Cl)nccc21 [Compound 71]
Emax [1]: 101%
IC50 [1]: 2.24 nM
Emax ([2]; maximum = Thiamet G 200 uM): 78%
EC50 [2]: 47.9 nM

Cc1cc(OC(F)F)nc(C)c1Nc1nccc2c1ccn2CC(F)(F)C(C)C [Compound 188]
Emax [1]: 100%
IC50 [1]: 1.62 nM
Emax ([2]; maximum = Thiamet G 200 uM): 89.1%
EC50 [2]: ~4.37 nM

Cc1ccnc(C)c1Nc1nccc2c1ccn2CCC(C)(C)C#N [Compound 26]
Emax [1]: 100%
IC50 [1]: 191 nM
Emax ([2]; maximum = Thiamet G 200 uM): 64%
EC50 [2]: 479 nM

CCCCn1ccc2c(Nc3c(C)cc(F)cc3C)nccc21 [Compound 73]
Emax [1]: 101%
IC50 [1]: 2.69 nM
Emax ([2]; maximum = Thiamet G 200 uM): 93%
EC50 [2]: 53.7 nM

FC(F)CCn1ccc2c(Nc3c(Cl)cccc3Cl)nccc21 [Compound 97]
Enzymatic hOGA; pIC50 [1]: 7.9
Emax [1]: 101%
Emax ([2]; maximum = Thiamet G 200 uM): 78%
EC50 [2]: 347 nM
